Test results as given in patent US11730720B2, “ALK5 inhibitors” (THERAVANCE BIOPHARMA R&D IP, LLC, priority 2018, dated 2023).

Experiments:
[1] = system: TGF-β-stimulated SMAD3 phosphorylation in BEAS-2B cells; assay: Cellular ALK5 potency assay, inhibition of TGF-β stimulated pSMAD3 formation in BEAS-2B cells; format: cell-based; conditions: Homo sapiens, inhibition of TGF-β (10 ng/mL) stimulated pSMAD3 formation, 1 hour compound incubation, read-out: BEAS2B pIC50 (converted)
Procedure: Example 255: Cellular ALK5 Potency Assay to Measure pIC50, Inhibition of TGF-β Stimulated pSMAD3 Formation in BEAS-2B Cells
The potency of compounds of the present disclosure for inhibition of TGF-β-stimulated SMAD3 phosphorylation was measured in BEAS-2B cells, a human lung epithelial cell line. TGF-β signals through activin receptor-like kinase 5 (ALK5) immediately prior to SMAD3 phosphorylation.
BEAS-2B cells were grown using 50% DMEM (Life Technologies) and 50% F-12 (Life Technologies) media, supplemented with 10% Fetal Bovine Serum (ATCC), 25 mM HEPES (Life Technologies), and 1×Pen-Strep (Life Technologies). Cells were cultured in a humidified incubator set at 37° C., 5% CO2, and trypsonized using 0.25% Trypsin with 0.5% polyvinylpyrrolidone (PVP).
For the assay, BEAS-2B cells were seeded at 7,500 cells/well (25 μL/well) in a 384-well plate and cultured overnight. Before dosing, growth media was aspirated and the wells were rinsed with HBSS Buffer (HBSS with Calcium and Magnesium, Life Technologies) supplemented with 25 mM HEPES (Life Technologies) and 1% Bovine Serum Albumin (Roche). Compounds were serially diluted in DMSO, then further diluted with supplemented HBSS Buffer (50 μL/well) to create a compound plate 3× of the final assay concentration, at 0.3% DMSO. The diluted compounds were then added to the cells (8 μL/well) and incubated at 37° C., 5% CO2 for 1 hour. After the compound incubation, TGF-β (R&D Systems) reconstituted in supplemented HBSS Buffer was added to the cells ([…], final concentration 10 ng/mL) and incubated for a further 30 minutes, after which the cells were immediately lysed with AlphaLISA lysis buffer (PerkinElmer). AlphaLISA Acceptor and Detector beads (PerkinElmer) were added 2 hours apart, then incubated overnight to be read the next day. The potency of the compound was determined through analysis of dose-dependent quantified changes in pSMAD3 signal from baseline (non-compound treated TGF-β stimulated cells). Data are expressed as pIC50 (negative decadic logarithm IC50) values.

[2] = target: T1, recombinant human ALK5 (TGF-βR1) protein (Homo sapiens, UniProt P36897); assay: Biochemical ALK5 (TGF-βR1) assay to measure pKi (LANCE Ultra ULight kinase assay); conditions: apparent pKi, converted from pIC50 using the Cheng-Prusoff equation
T1 construct: purchased Life Technologies PR9075A
T1 sequence (P36897 34-503): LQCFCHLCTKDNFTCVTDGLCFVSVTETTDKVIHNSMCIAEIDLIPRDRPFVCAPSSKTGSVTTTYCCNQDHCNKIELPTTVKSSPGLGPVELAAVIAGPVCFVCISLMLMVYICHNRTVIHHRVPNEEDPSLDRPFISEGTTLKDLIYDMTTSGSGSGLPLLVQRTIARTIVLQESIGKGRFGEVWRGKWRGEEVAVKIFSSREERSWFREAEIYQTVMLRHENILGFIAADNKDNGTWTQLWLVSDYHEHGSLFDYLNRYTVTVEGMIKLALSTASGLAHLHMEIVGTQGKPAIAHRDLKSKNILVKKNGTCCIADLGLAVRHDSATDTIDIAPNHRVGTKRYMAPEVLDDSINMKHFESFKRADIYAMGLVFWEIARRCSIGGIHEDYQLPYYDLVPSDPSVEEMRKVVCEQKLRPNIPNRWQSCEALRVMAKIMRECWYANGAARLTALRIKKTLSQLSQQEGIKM
Procedure: Example 254: Biochemical ALK5 (TGF-βR1) Assay to Measure pKi
The assays were performed in a 384-well plate (24 columns×16 wells/rows). An Echo® 550 Liquid Handler (Labcyte) was used to prepare various intermediate concentrations of compounds of the present disclosure in 100% DMSO. From the intermediate concentrations, a range of concentrations (from 10 μM to 25 pM corresponding to volumes up to 105 nL) were prepared and ejected into a final assay plate to be used to create individual dose response curves for each of the subject compounds. To a separate column within the assay plate, 105 nL of DMSO in each well was used to establish a maximum assay signal. Additionally, 105 nL of 100 μM SD-208, a selective TGF-βR1 inhibitor (Catalog #S7624, Selleck Chemicals), was used in another column of wells to establish a minimal assay signal.
With a multidrop dispenser, 8 μL of enzyme mixture (1.25× final) was added to each well. The enzyme mixture consisted of 250 pM ALK5 enzyme and 62.5 nM peptide substrate (LANCE® (lanthanide chelate excite) Ultra ULight™-DNA Topoisomerase 2-alpha (Thr1342)) prepared in assay buffer (50 mM HEPES, 10 mM MgCl2, 1 mM EGTA, 0.01% Tween-20, pH 7.5 at room temperature) with 2 mM DTT added prior to use. The plate was then sealed with an adhesive seal and allowed to equilibrate for 60 minutes at room temperature.
Next, 2 μL of 125 μM ATP (5× final, 125 μM ATP prepared in assay buffer with 2 mM DTT) was added to the incubated mixtures, covered with a MicroClime® Environmental Lid (Product No. LLS-0310, Labcyte) and immediately transferred to 37° C. The reactions were allowed to proceed at 37° C. for 60 minutes before terminating with the addition of 10 μL of detection antibody (LANCE® (lanthanide chelate excite) Ultra Europium-anti-phospo-DNA Topoisomerase 2-alpha (Thr1342)) in detection mixture (12 mM EDTA, 4 nM detection antibody prepared in detection buffer (50 mM Tris-HCl, 150 mM NaCl, 0.5% BSA (Fraction V), pH 7.0)) at room temperature. The plate was then read on a Perkin Elmer EnVision Plate Reader using europium specific reader settings with excitation and emission wavelengths set to 320 or 340 nm and 665 nm, respectively.
For dose-response analyses, percent inhibition versus compound concentrations were plotted, and pIC50 values were determined from a 4-parameter robust fit model with GraphPad Prism V5 Software (GraphPad Software, Inc., La Jolla, Calif.). This model obtains pIC50 values by fitting the sigmodial dose-response (variable slope) equation to the data. Results were expressed as pIC50 (negative logarithm of IC50) and subsequently converted to pKi (negative logarithm of dissociate constant, K) using the Cheng-Prusoff equation.
The higher the value of pKi (lower value of Ki), the greater the inhibition of ALK5 activity.

| SMILES | IC50 [1] | Ki [2] |
| --- | --- | --- |
| CCOC(=O)[C@H]1CN(c2cnc3ccc(-c4nc[nH]c4-c4cc(Cl)ccc4F)nc3c2)CCN1 [Compound 2-38, ethyl (2R)-4-[6-[5-(5-chloro-2-fluoro-phenyl)-1H-imidazol-4-yl]-1,5-naphthyridin-3-yl]piperazine-2-carboxylate] | 25.1 to 158 nM | 3.98 to 31.6 nM |
| CNC1CCN(c2cnc3ccc(-c4nc[nH]c4-c4cc(Cl)ccc4F)nc3c2)CC1 [Compound 2-9, 1-[6-[5-(5-chloro-2-fluoro-phenyl)-1H-imidazol-4-yl]-1,5-naphthyridin-3-yl]-N-methyl-piperidin-4-amine] | 25.1 to 158 nM | ≤ 0.0316 nM |
| Fc1cc(F)c(-c2n[nH]cc2-c2ccc3ncc(-c4cc5n(n4)CCNC5)cc3n2)cc1Cl [Compound 6-56, 2-[3-(5-chloro-2,4-difluoro-phenyl)-1H-pyrazol-4-yl]-7-(4,5,6,7-tetrahydropyrazolo[1,5-a]pyrazin-2-yl)-1,5-naphthyridine] | 25.1 to 158 nM | 0.0398 to 0.316 nM |
| Fc1ccc(Cl)cc1-c1n[nH]cc1-c1ccc2ncc(N3CCCNCC3)cc2n1 [Compound 1-63, 2-[3-(5-chloro-2-fluoro-phenyl)-1H-pyrazol-4-yl]-7-(1,4-diazepan-1-yl)-1,5-naphthyridine] | 25.1 to 158 nM | 0.398 to 3.16 nM |
| CN(C)C1CCN(c2cnc3ccc(-c4c[nH]nc4-c4ccc(F)c(F)c4)nc3c2)C1 (racemic) [Compound 8-5, rac-(3S)-1-[6-[3-(3,4-difluorophenyl)-1H-pyrazol-4-yl]-1,5-naphthyridin-3-yl]-N,N-dimethyl-pyrrolidin-3-amine] | 25.1 to 158 nM | 0.398 to 3.16 nM |
| Fc1cc(F)c(-c2n[nH]cc2-c2ccc3ncc(-c4nnc5n4CCN5)cc3n2)cc1Cl [Compound 6-64, 2-[3-(5-chloro-2,4-difluoro-phenyl)-1H-pyrazol-4-yl]-7-(6,7-dihydro-5H-imidazo[2,1-c][1,2,4]triazol-3-yl)-1,5-naphthyridine] | 200 to 1260 nM | 0.398 to 3.16 nM |
| Fc1ccc(Cl)cc1-c1[nH]cnc1-c1ccc2ncc(N3CCCNCC3)cc2c1 [Compound 17-6, 6-[5-(5-chloro-2-fluoro-phenyl)-1H-imidazol-4-yl]-3-(1,4-diazepan-1-yl)quinoline] | 25.1 to 158 nM | 0.398 to 3.16 nM |
| COC(=O)N1CCc2nnc(-c3cnc4ccc(-c5c[nH]nc5-c5cc(Cl)c(F)cc5F)nc4c3)cc2C1 [Compound 6-61, methyl 3-[6-[3-(5-chloro-2,4-difluoro-phenyl)-1H-pyrazol-4-yl]-1,5-naphthyridin-3-yl]-7,8-dihydro-5H-pyrido[4,3-c]pyridazine-6-carboxylate] | 25.1 to 158 nM | 0.0398 to 0.316 nM |
| Fc1ccc(Cl)cc1-c1nc2ccccn2c1-c1ccc2ncc(N3CCNCC3)cc2n1 [Compound 3-2, 2-(2-(5-chloro-2-fluorophenyl)imidazo[1,2-a]pyridin-3-yl)-7-(piperazin-1-yl)-1,5-naphthyridine] | 200 to 1260 nM | 0.0398 to 0.316 nM |
| Fc1cc(F)c(-c2n[nH]cc2-c2ccc3ncc(-c4ncc5n4CCN5)cc3n2)cc1Cl [Compound 6-65, 2-[3-(5-chloro-2,4-difluoro-phenyl)-1H-pyrazol-4-yl]-7-(2,3-dihydro-1H-imidazo[1,2-c]imidazol-5-yl)-1,5-naphthyridine] | 200 to 1260 nM | 3.98 to 31.6 nM |
| O=C(NCCN1CCCC1)[C@H]1CN(c2cnc3ccc(-c4c[nH]nc4-c4cc(Cl)ccc4F)nc3c2)CCN1 [Compound 1-132, (2R)-4-[6-[3-(5-chloro-2-fluoro-phenyl)-1H-pyrazol-4-yl]-1,5-naphthyridin-3-yl]-N-(2-pyrrolidin-1-ylethyl)piperazine-2-carboxamide] | 200 to 1260 nM | 0.0398 to 0.316 nM |
| Fc1cc(F)c(-c2n[nH]cc2-c2ccc3ncc(-c4[nH]nc5c4CCNC5)cc3n2)cc1Cl [Compound 6-53, 2-[3-(5-chloro-2,4-difluoro-phenyl)-1H-pyrazol-4-yl]-7-(4,5,6,7-tetrahydro-2H-pyrazolo[3,4-c]pyridin-3-yl)-1,5-naphthyridine] | 25.1 to 158 nM | 0.0398 to 0.316 nM |
| CN1CCN(C2CCN(c3cnc4ccc(-c5c[nH]nc5-c5ccccc5F)nc4c3)CC2)CC1 [Compound 11-1, 2-(3-(2-fluorophenyl)-1H-pyrazol-4-yl)-7-(4-(4-methylpiperazin-1-yl)piperidin-1-yl)-1,5-naphthyridine] | 25.1 to 158 nM | 0.398 to 3.16 nM |
| CN1CCN(C2CCN(c3cnc4ccc(-c5c[nH]nc5-c5cc(Cl)ccc5F)nc4c3)CC2)CC1 [Compound 1-83, 2-[3-(5-chloro-2-fluoro-phenyl)-1H-pyrazol-4-yl]-7-[4-(4-methylpiperazin-1-yl)-1-piperidyl]-1,5-naphthyridine] | ≤ 20 nM | ≤ 0.0316 nM |
| CNCCn1cc(-c2cnc3ccc(-c4nn[nH]c4-c4cc(Cl)ccc4F)cc3c2)cn1 [Compound 18-1, 2-(4-(6-(5-(5-chloro-2-fluorophenyl)-1H-1,2,3-triazol-4-yl)quinolin-3-yl)-1H-pyrazol-1-yl)-N-methylethan-1-amine] | 25.1 to 158 nM | ≤ 0.0316 nM |
| CN1CC=C(c2cnc3ccc(-c4c[nH]nc4-c4cc(Cl)c(F)cc4F)nc3c2)C1 [Compound 6-43, 2-(3-(5-chloro-2,4-difluorophenyl)-1H-pyrazol-4-yl)-7-(1-methyl-2,5-dihydro-1H-pyrrol-3-yl)-1,5-naphthyridine] | ≤ 20 nM | 0.0398 to 0.316 nM |
| Fc1ccc(Cl)cc1-c1[nH]cnc1-c1ccc2ncc(NCCN3CCCC3)cc2n1 [Compound 2-26, 6-[5-(5-chloro-2-fluoro-phenyl)-1H-imidazol-4-yl]-N-(2-pyrrolidin-1-ylethyl)-1,5-naphthyridin-3-amine] | ≤ 20 nM | 0.0398 to 0.316 nM |
| NC(=O)C1CN(c2cnc3ccc(-c4c[nH]nc4-c4cc(Cl)ccc4F)nc3c2)CCN1 (racemic) [Compound 1-50, rac-(2S)-4-[6-[3-(5-chloro-2-fluoro-phenyl)-1H-pyrazol-4-yl]-1,5-naphthyridin-3-yl]piperazine-2-carboxamide] | 25.1 to 158 nM | 0.398 to 3.16 nM |
